Patent publication US20020114734A1, “Microplate thermal shift assay apparatus for ligand development and multi-variable protein chemistry optimization” (priority 1996, published 2002)
Read-outs that look alike come from different tables or passages of the source. Where a SMILES comes first, the peptide text is derived from it. The star is where a group is joined. CH2Cl = ClC*

Assays:
[1] = test system: human urokinase-type plasminogen activator (u-PA); assay: Miniaturized (5 μL) microplate thermal shift assay of urokinase; format: binding; settings: CMK-u-PA complex, MOPS pH 7, NaCl, 1,8-ANS
Text: Another target molecule analyzed was human urokinase-type plasminogen activator (u-PA). U-PA enzymatically converts plasminogen into the active protease plasmin. U-PA is involved in tissue remodeling, cellular migration and metastases. The gene for u-PA was obtained from ATCC (Rockville, Md.) and modified to appropriately express active enzyme in E. coli. u-PA was cloned, overexpressed in E. coli, and purified using procedures similar to those described by Winkler et al. (Biochemistry 25:4041-4045 (1986)). […] The experiment was performed in the miniaturized format in 5 μL well volume. One μL of concentrated CMK-u-PA (13 g/L, 371.4 μM) was added to 4 μL of 62.5 mM MOPS, pH 7, 125 mM NaCl, and 250 μM 1,8-ANS, in multiple wells of a 96-well polycarbonate V-bottom microtiter plate. A thermal denaturation curve was generated as previously described for thrombin, aFGF, D(II)FGFR1, Factor D, and Factor Xa, by incremental heating of the microplate followed by a fluorescence reading after each temperature increase.

D(II) FGF receptor 1 = assay: Microplate thermal shift screen of biochemical conditions, D(II) FGF receptor 1 stability; design: species or system human; settings: for effect on D(II) FGF receptor 1 stability: additives in 50 mM MOPS pH 7, 0.1 M NaCl
Protocol: The microplate thermal shift assay was used to simultaneously screen the effects of multiple biochemical conditions on D(II) FGF receptor 1 stability. The assays were performed by mixing 1 μL of D(II) FGFR1 (from a 500 μM concentrated stock in 50 mM HEPES pH 7.5) with 4 μL of each biochemical condition in wells of a 96-well polycarbonate microtiter plate. Final protein concentration after mixing was 100 μM and final 1,8-ANS concentration was 200 μM. Biochemical conditions were tested as follows: The pH's tested were 5 (Na acetate), 6 (MES), 7 (MOPS), 8 (HEPES), and 9 (CHES), with final buffer concentrations of 50 mM.
The salt concentrations tested were 0.1 or 0.5 M NaCl. Additives were tested in 50 mM MOPS, pH 7, 0.1 M NaCl, at final concentrations of 1 mM (EDTA, dithiothreitol), 10 mM (CaCl2, MgCl2, MgSO4, NiSO4), 50 mM (arginine), 100 mM ((NH4)2SO4, LiSO4, Na2SO4, ZnSO4), 5% w/v (polyethylene glycol 6000), and 10% v/v glycerol.
(§1) Thermal denaturation profiles were generated as previously described for thrombin, aFGF, Factor D, and Factor Xa, by incremental heating of the microplate followed by a fluorescence reading after each temperature increase. Data were analyzed by non-linear least squares fitting as described previously.

human α-thrombin = target: T1, human α-thrombin (Homo sapiens, UniProt P00734); assay: Microplate thermal shift screen of biochemical conditions, thrombin stability; settings: for effect on human α-thrombin stability: 10% glycerol, 10 mM dithiothreitol
T1 construct: A stock human α-thrombin solution; purchased Enzyme Research Labs
Protocol: The microplate thermal shift assay was used, with four different fluorophores, to simultaneously screen the effects of multiple pH values, sodium chloride concentrations, and reduction-oxidation compounds on human α-thrombin stability. […] Reaction volume was 100 μL.

human urokinase = assay: Microplate thermal shift screen of biochemical conditions, urokinase stability; settings: 0.1 or 0.5 M NaCl; 10% glycerol
Protocol: The microplate thermal shift assay was used to simultaneously screen the effects of multiple biochemical conditions on human urokinase stability. This experiment was performed by mixing 1 μL of urokinase (from a […] concentrated stock in 20 mM Tris pH 8) with 4 μL of each biochemical condition in wells of a 96-well polycarbonate microtiter plate. Final protein concentration after mixing was 74 μM and final 1,8-ANS concentration was 200 μM. Biochemical conditions were tested as follows: The pH's tested were 5 (acetate), 6 (MES), 7 (MOPS), 8 (HEPES), and 9 (CHES) with final buffer concentrations of 50 mM. The salt concentrations tested were 0.1 or 0.5 M NaCl. Glycerol was tested at 10% v/v in 50 mM MOPS, pH 7, 0.1 M NaCl.
as §1, with “D, D(II) FGFR1,” for “D,”

thrombin = thrombin (Homo sapiens, UniProt P00734); settings: 5 mM Tris buffer pH 8.0, 0.1% PEG, 25° C.; read-out: Kd of Na+ binding site; cited from earlier work
[2] = target: T2, acidic fibroblast growth factor (aFGF) (Homo sapiens, UniProt P05230); assay: Microplate thermal shift assay for ligands binding to aFGF, turbidity as signal
T2 construct: host or cells: E. coli
T2 sequence (P05230 whole entry, species assumed): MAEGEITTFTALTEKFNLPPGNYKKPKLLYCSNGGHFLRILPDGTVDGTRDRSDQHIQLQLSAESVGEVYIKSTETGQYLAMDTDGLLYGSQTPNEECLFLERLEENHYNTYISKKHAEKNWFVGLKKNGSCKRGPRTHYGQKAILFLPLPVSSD
Text: The second therapeutic receptor tested in the microplate thermal shift assay was acidic fibroblast growth factor (aFGF), a growth factor that plays a key role in angiogenesis (Folkman, J. et al., J. Biol. Chem. 267:10931-10934 (1992)). A synthetic gene for this protein was purchased from R&D Systems (Minneapolis, Minn.), and was cloned and expressed in E. coli using methods similar to those described for basic fibroblast growth factor (bFGF) (Thompson, L. D. et al., Biochemistry 33:3831-3840 (1994); Pantoliano, M. W. et al., Biochemistry 33:10229-10248 (1994); Springer, B. A. et al., J. Biol. Chem. 269:26879-26884 (1994)). Recombinant aFGF was then purified by heparin-sepharose affinity chromatography as described (Thompson, L. D. et al., Biochemistry 33:3831-3840 (1994)). aFGF is also known to bind heparin/heparan, which is a cofactor for mitogenic activity. […] A microplate thermal assay of these compounds was set up in a way similar to that described above for human α-thrombin. […] The affinity constants covered a fairly broad range of binding affinities, with pentosan PSO4 showing the highest affinity.

[3] = target: T3, heparin binding site of basic fibroblast growth factor (bFGF) (Homo sapiens, UniProt P09038); assay: Microplate thermal shift assay for ligands binding to bFGF; settings: read-out: binding affinity
T3 construct: host or cells: E. coli
T3 sequence (P09038 134-288, species assumed): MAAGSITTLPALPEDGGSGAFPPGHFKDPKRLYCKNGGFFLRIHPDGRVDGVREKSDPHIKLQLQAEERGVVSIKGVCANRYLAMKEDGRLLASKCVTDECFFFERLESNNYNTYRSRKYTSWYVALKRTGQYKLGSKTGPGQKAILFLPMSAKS
Text: The microplate thermal shift assay was used to assess ligands for binding to the heparin binding site of basic fibroblast growth factor (bFGF). The gene for bFGF was purchased from R&D Systems and was cloned and expressed in E. coli as previously described (Thompson, L. D. et al., Biochemistry 33:3831-3840 (1994); Pantoliano, M. W. et al., Biochemistry 33:10229-10248 (1994); Springer, B. A. et al., J. Biol. Chem. 269:26879-26884 (1994)).

D(II) FGFR1 = target: T4, D(II) FGFR1 (Homo sapiens, UniProt P11362); assay: Miniaturized (10 μL) microplate thermal shift assay; format: binding
T4 construct: hexa-histidine (N); made in house
T4 sequence (P11362 158-246 limits assumed): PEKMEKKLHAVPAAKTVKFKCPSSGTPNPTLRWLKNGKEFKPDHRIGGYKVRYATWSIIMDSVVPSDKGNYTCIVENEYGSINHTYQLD
Protocol: Recombinant D(II) FGFR1 was purified from inclusion bodies and purified by affinity chromatography on heparin sepharose. A stock solution of D(II) FGFR1 (15 mg/mL; 1.1 mM) was diluted to 50 μM in assay buffer (50 mM Hepes, pH 7.5, 0.1 M NaCl). The assay volume was 10 μL and the concentration of 1,8-ANS was 250 μM.

N=C(N)NCCC[C@H](NC(=O)CNC(=O)[C@@H](N)CCC(=O)O)C(=O)CCl [CMK, glu-gly-arg-chloromethylketone] (H-Glu-Gly-Arg-CH2Cl)
Tm [1]: 81 °C

N=C(N)NCCC[C@H](N)C(=O)O [arginine]
effect on D(II) FGF receptor 1 stability (D(II) FGF receptor 1): stabilized the protein

[Cl-].[Na+] [NaCl, sodium chloride]
ΔTm (human α-thrombin; NaCl concentration increased from 0 to 0.5 M): about 12 °C
Kd (human α-thrombin; near the Tm (53° C.), 50 mM Hepes pH 8.0, zero and 0.10 M NaCl, read-out: NaCl binding (estimated with equation (1))): ~6 mM
ΔTm (D(II) FGF receptor 1; NaCl concentration increased from 0.1 to 0.5 M): about 5 °C
effect on human urokinase stability (human urokinase): stabilized the protein
Kd (thrombin): 30 ± 3 mM

N.N.O=S(=O)(O)O [(NH4)2SO4]
effect on D(II) FGF receptor 1 stability (D(II) FGF receptor 1): stabilizing effects

O=S(=O)([O-])[O-].[Mg+2] [MgSO4]
effect on D(II) FGF receptor 1 stability (D(II) FGF receptor 1): stabilized the protein
effect on D(II) FGF receptor 1 stability (D(II) FGF receptor 1; listed as Mg2SO4): stabilizing effects

OCC(O)CO [glycerol]
effect on human α-thrombin stability (human α-thrombin): stabilizing effect
effect on D(II) FGF receptor 1 stability (D(II) FGF receptor 1): stabilized the protein
effect on human urokinase stability (human urokinase): stabilized the protein

Cc1ccc(C(=O)Nc2ccc(S(=O)(=O)O)c3cc(S(=O)(=O)O)cc(S(=O)(=O)O)c23)cc1NC(=O)c1cccc(NC(=O)Nc2cccc(C(=O)Nc3cc(C(=O)Nc4ccc(S(=O)(=O)O)c5cc(S(=O)(=O)O)cc(S(=O)(=O)O)c45)ccc3C)c2)c1 [Suramin, suramin]
Tm ([2]; aFGF/ligand, aFGF 0.25 mg/mL, ligand 47-200 μM, turbidity): 330.15 ° K
Kd ([2]; equation (1), estimated ΔHu 60.0 kcal/mole, ΔCpu 0.95 kcal/mole-°K, read-out: Kd at Tm): 3220 nM
Kd ([2]; equation (3), ΔHL estimated −10.0 kcal/mole, read-out: Kd at 298° K Observed): 622 nM
ΔTm ([2]; relative to aFGF alone (317.15 ° K)): 13.0 ° K
Kd [3]: 3.5 µM

O=S(=O)([O-])[O-].[Na+].[Na+] [Na2SO4]
effect on D(II) FGF receptor 1 stability (D(II) FGF receptor 1): stabilizing effects

O[C@H](CS)[C@H](O)CS (racemic) [dithiothreitol]
effect on human α-thrombin stability (human α-thrombin): destabilizing effect
effect on D(II) FGF receptor 1 stability (D(II) FGF receptor 1): destabililzed the protein

O=C(NCCCNC(=O)[C@H](OS(=O)(=O)O)[C@@H](OS(=O)(=O)O)[C@H](O[C@@H]1O[C@H](COS(=O)(=O)O)[C@H](OS(=O)(=O)O)[C@H](OS(=O)(=O)O)[C@H]1OS(=O)(=O)O)[C@@H](COS(=O)(=O)O)OS(=O)(=O)O)[C@H](OS(=O)(=O)O)[C@@H](OS(=O)(=O)O)[C@H](O[C@@H]1O[C@H](COS(=O)(=O)O)[C@H](OS(=O)(=O)O)[C@H](OS(=O)(=O)O)[C@H]1OS(=O)(=O)O)[C@@H](COS(=O)(=O)O)OS(=O)(=O)O [aprosulate]
unfolding transition (Tm) (D(II) FGFR1; aprosulate 300 uM): about 320 K
increase of unfolding transition (D(II) FGFR1; aprosulate 300 uM, 50 μM D(II) FGFR1, 10 μL): about 8 K
Kd (D(II) FGFR1; estimate, read-out: binding affinity at the Tm): ~18 µM

O=S(=O)([O-])[O-].[Li+].[Li+] [Li2SO4]
effect on D(II) FGF receptor 1 stability (D(II) FGF receptor 1): stabilizing effects
